According to PubChem BioAssay AID264 (DTP/NCI, 2004):
Inconclusive results are not listed.

System: nude mice, LX-1 lung xenograft intrarenal, tumor weight T/C
Assay: NCI In Vivo Anticancer Drug Screen. Data for tumor model Human Lung LX-1 Xenograft (intrarenal inoculation) in NU/NU Swiss (nude) mice
Settings: endpoint: mean tumor weight change, higher = larger tumour
Method in brief: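 Tumor-bearing mice receive test compound or vehicle; tumor size is then measured in each group. The treated value is divided by the vehicle value to give T/C.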

[1] = dose: 100.0 mg/kg/injection, schedule: Q04DX003 (sc), vehicle: saline with Tween-80
[2] = dose: 200.0 mg/kg/injection, schedule: Q04DX003 (sc), vehicle: saline with Tween-80
[3] = dose: 400.0 mg/kg/injection, schedule: Q04DX003 (sc), vehicle: saline with Tween-80
[4] = dose: 800.0 mg/kg/injection, schedule: Q04DX003 (sc), vehicle: saline with Tween-80
[5] = dose: 150.0 mg/kg/injection, schedule: Q04DX003 (sc), vehicle: saline
[6] = dose: 300.0 mg/kg/injection, schedule: Q04DX003 (sc), vehicle: saline
[7] = dose: 600.0 mg/kg/injection, schedule: Q04DX003 (sc), vehicle: saline

In the case of `COc1cc(NS(C)(=O)=O)ccc1Nc1c2ccccc2nc2ccccc12`, the T/C (dose: 0.47 mg/kg/injection, schedule: Q01DX010 (sc), vehicle: clinical formulation) is reported as 151 % of control, the T/C (dose: 0.75 mg/kg/injection, schedule: Q01DX010 (sc), vehicle: other) is reported as 99 % of control and the T/C (dose: 0.94 mg/kg/injection, schedule: Q01DX010 (sc), vehicle: lactic acid) is reported as 84 % of control. For the same molecule, the T/C (dose: 1.5 mg/kg/injection, schedule: Q01DX010 (sc), vehicle: other) was 88 % of control, the T/C (dose: 1.88 mg/kg/injection, schedule: Q01DX010 (sc), vehicle: clinical formulation) was 110 % of control and the T/C (dose: 1.88 mg/kg/injection, schedule: Q01DX010 (sc), vehicle: lactic acid) was 109 % of control. The T/C (dose: 3.0 mg/kg/injection, schedule: Q01DX010 (sc), vehicle: other) was 64 % of control and the T/C (dose: 3.75 mg/kg/injection, schedule: Q01DX010 (sc), vehicle: lactic acid) was 46 % of control.
`Cc1cc2cc3cc(C)c(N)cc3nc2cc1N` was tested, and the T/C [1] was 77 % of control, the T/C [2] was 51 % of control and the T/C [3] was 63 % of control. The T/C [4] was 95 % of control.
`NC(CSC(c1ccccc1)(c1ccccc1)c1ccccc1)C(=O)O` (stereo not drawn) was tested, and the T/C (dose: 25.0 mg/kg/injection, schedule: Q01DX010 (sc), vehicle: Klucel (hydroxypropylcellulose) (HPC)) was 86 % of control and the T/C (dose: 50.0 mg/kg/injection, schedule: Q01DX010 (sc), vehicle: Klucel (hydroxypropylcellulose) (HPC)) was 155 % of control.
For `CCC(C)Nc1ccc(N)cc1` (stereo not drawn), the T/C (dose: 9.0 mg/kg/injection, schedule: Q04DX003 (sc), vehicle: Klucel (hydroxypropylcellulose) (HPC)) was 80 % of control and the T/C (dose: 18.0 mg/kg/injection, schedule: Q04DX003 (sc), vehicle: Klucel (hydroxypropylcellulose) (HPC)) was 104 % of control.
With `Nc1ncnc2c1ncn2C1C=C(CO)C(O)C1O` (stereo not drawn) the T/C (dose: 3.75 mg/kg/injection, schedule: Q04DX003 (sc), vehicle: saline) was 49 % of control, the T/C (dose: 7.5 mg/kg/injection, schedule: Q04DX003 (sc), vehicle: saline) was 70 % of control and the T/C (dose: 15.0 mg/kg/injection, schedule: Q04DX003 (sc), vehicle: saline) was 58 % of control.
For `C[C@]12CC[C@@H]3c4ccc(OC(=O)Cc5ccc(N(CCCl)CCCl)cc5)cc4CC[C@H]3[C@@H]1CC[C@@H]2OC(=O)Cc1ccc(N(CCCl)CCCl)cc1`, the T/C [2] was 83 % of control, the T/C [3] was 107 % of control and the T/C [4] was 116 % of control. The T/C (dose: 1600.0 mg/kg/injection, schedule: Q04DX003 (sc), vehicle: saline with Tween-80) was 90 % of control.
In the case of `c1cnc2ncncc2n1`, the T/C (dose: 50.0 mg/kg/injection, schedule: Q04DX003 (sc), vehicle: saline with Tween-80) is reported as 150 % of control and the T/C [1] is reported as 81 % of control.
For `COc1cc([C@@H]2c3cc4c(c(O)c3C[C@H]3COC(=O)[C@@H]32)OCO4)cc(OC)c1O`, the T/C (dose: 0.06 mg/kg/injection, schedule: Q01DX010 (sc), vehicle: saline) was 97 % of control, the T/C (dose: 0.12 mg/kg/injection, schedule: Q01DX010 (sc), vehicle: saline) was 91 % of control and the T/C (dose: 0.25 mg/kg/injection, schedule: Q01DX010 (sc), vehicle: saline) was 74 % of control. For the same molecule, the T/C (dose: 0.5 mg/kg/injection, schedule: Q01DX010 (sc), vehicle: saline) was 205 % of control and the T/C (dose: 1.0 mg/kg/injection, schedule: Q01DX010 (sc), vehicle: saline) was 76 % of control.
With `Cc1ccccc1CN1C2=NCCN2C(=O)C2=C1CCN(S(=O)(=O)c1ccc(Cl)c(S(N)(=O)=O)c1)C2` the T/C [5] was 77 % of control, the T/C [6] was 96 % of control and the T/C [7] was 155 % of control.
For `CNC(=O)OCc1c(COC(=O)NC)c(-c2ccccc2)n(C)c1-c1ccccc1`, the T/C (dose: 50.0 mg/kg/injection, schedule: Q04DX003 (sc), vehicle: distilled water + Tween-80) was 88 % of control, the T/C (dose: 100.0 mg/kg/injection, schedule: Q04DX003 (sc), vehicle: distilled water + Tween-80) was 182 % of control and the T/C (dose: 200.0 mg/kg/injection, schedule: Q04DX003 (sc), vehicle: distilled water + Tween-80) was 50 % of control. The T/C (dose: 800.0 mg/kg/injection, schedule: Q04DX003 (sc), vehicle: distilled water + Tween-80) was 52 % of control and the T/C (dose: 1600.0 mg/kg/injection, schedule: Q04DX003 (sc), vehicle: distilled water + Tween-80) was 57 % of control.
`O=CC(=O)c1ccc(O)cc1` was tested, and the T/C [5] was 51 % of control, the T/C [6] was 49 % of control and the T/C [7] was 58 % of control.
For `COc1cccc2c1C(=O)c1c(O)c3c(c(O)c1C2=O)C[C@@](O)(C(C)=O)C[C@@H]3OC1CC(N(C)C)C(O)C(C)O1` (stereo partly drawn), the T/C (dose: 2.0 mg/kg/injection, schedule: Q01DX010 (sc), vehicle: water) was 200 % of control, the T/C (dose: 4.0 mg/kg/injection, schedule: Q01DX010 (sc), vehicle: water) was 80 % of control and the T/C (dose: 6.0 mg/kg/injection, schedule: Q04DX003 (sc), vehicle: water) was 59 % of control. For the same molecule, the T/C (dose: 12.0 mg/kg/injection, schedule: Q04DX003 (sc), vehicle: water) was 88 % of control.
In the case of `Cc1cc(N(CC(C)Br)CC(C)Br)ccc1N=Nc1ccccc1C(=O)O` (stereo not drawn), the T/C (dose: 3.13 mg/kg/injection, schedule: Q01DX010 (sc), vehicle: saline with Tween-80) is reported as 85 % of control and the T/C (dose: 6.25 mg/kg/injection, schedule: Q01DX010 (sc), vehicle: saline with Tween-80) is reported as 151 % of control.
With `O=C1NC(=O)/C(=C/C=C/c2ccccc2)S1` the T/C (dose: 300.0 mg/kg/injection, schedule: Q04DX003 (sc), vehicle: saline with Tween-80) was 87 % of control, the T/C (dose: 600.0 mg/kg/injection, schedule: Q04DX003 (sc), vehicle: saline with Tween-80) was 118 % of control and the T/C (dose: 1200.0 mg/kg/injection, schedule: Q04DX003 (sc), vehicle: saline with Tween-80) was 94 % of control. For the same molecule, the T/C (dose: 2400.0 mg/kg/injection, schedule: Q04DX003 (sc), vehicle: saline with Tween-80) was 62 % of control.
For `COC1=NCN=C2SC=C(N)N=C12`, the T/C (dose: 150.0 mg/kg/injection, schedule: Q04DX003 (sc), vehicle: suspension in saline) was 79 % of control.
With `Oc1c(Cl)cc(Cl)cc1C1N2CCCCC2C2c3cccn3-c3ccccc3N21` (stereo not drawn) the T/C (dose: 150.0 mg/kg/injection, schedule: Q04DX003 (sc), vehicle: Klucel (hydroxypropylcellulose) (HPC)) was 65 % of control, the T/C (dose: 300.0 mg/kg/injection, schedule: Q04DX003 (sc), vehicle: Klucel (hydroxypropylcellulose) (HPC)) was 69 % of control and the T/C (dose: 1200.0 mg/kg/injection, schedule: Q04DX003 (sc), vehicle: Klucel (hydroxypropylcellulose) (HPC)) was 74 % of control.
`C=C(C(=O)O)C(N)C(=O)O` (stereo not drawn) was tested, and the T/C (dose: 1200.0 mg/kg/injection, schedule: Q04DX003 (sc), vehicle: suspension in saline) was 76 % of control.
`Nc1cccc(=O)[nH]1` was tested, and the T/C [6] was 100 % of control, the T/C [7] was 110 % of control and the T/C (dose: 1200.0 mg/kg/injection, schedule: Q04DX003 (sc), vehicle: saline) was 105 % of control.
`COc1cccc2c1C(=O)c1c(O)c3c(c(O)c1C2=O)CC(O)(C(=O)CO)CC3OC1CC(N)C(O)C(C)O1` (stereo not drawn) was tested, and the T/C (dose: 12.0 mg/kg/injection, schedule: Q01DX010 (sc), vehicle: saline) was 71 % of control, the T/C (dose: 24.0 mg/kg/injection, schedule: Q01DX010 (sc), vehicle: saline) was 24 % of control and the T/C (dose: 25.0 mg/kg/injection, schedule: Q01DX010 (sc), vehicle: water) was 71 % of control. The T/C (dose: 37.5 mg/kg/injection, schedule: Q04DX003 (sc), vehicle: water) was 82 % of control, the T/C (dose: 48.0 mg/kg/injection, schedule: Q01DX010 (sc), vehicle: saline) was 31 % of control and the T/C (dose: 50.0 mg/kg/injection, schedule: Q01DX010 (sc), vehicle: water) was 71 % of control. For the same molecule, the T/C (dose: 75.0 mg/kg/injection, schedule: Q04DX003 (sc), vehicle: water) was 105 % of control, the T/C (dose: 100.0 mg/kg/injection, schedule: Q01DX010 (sc), vehicle: water) was 39 % of control and the T/C (dose: 150.0 mg/kg/injection, schedule: Q04DX003 (sc), vehicle: water) was 193 % of control. The T/C (dose: 200.0 mg/kg/injection, schedule: Q01DX010 (sc), vehicle: water) was 11 % of control and the T/C (dose: 300.0 mg/kg/injection, schedule: Q04DX003 (sc), vehicle: water) was 46 % of control.
For `C1OC1CO[C@@H]1CO[C@H]2[C@@H]1OC[C@H]2OCC1CO1` (stereo partly drawn), the T/C (dose: 50.0 mg/kg/injection, schedule: Q01DX010 (sc), vehicle: saline with Tween-80) was 95 % of control, the T/C (dose: 100.0 mg/kg/injection, schedule: Q01DX010 (sc), vehicle: saline with Tween-80) was 80 % of control and the T/C (dose: 200.0 mg/kg/injection, schedule: Q01DX010 (sc), vehicle: saline with Tween-80) was 65 % of control.
